One assay relates to AsPC-1 cells. Nature of the assay: AsPC-1 cell proliferation assay (CellTiter Glo). The class given is cell-based. The note with it: 6 days. In short, it runs like this:
(§1)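 Read-outs were KRAS G12D immunofluorescence against β-actin after 24 h (DC50) and CellTiter Glo luminescence after 6 days (IC50). Compounds were titrated 1:3 from […] to 1.5 nM final on AsPC-1 cells at 37 °C, 5% CO2.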

A further assay concerns the target T1, KRAS (G12D) (Homo sapiens, UniProt P01116, G12D).
T1 construct: in-cell western with KRAS G12D antibody after 24 h
Nature of the assay: KRAS (G12D) cellular degradation assay in AsPC-1 cells. Format: cell-based. The note with it: 24 hours, antibody fluorescence (Odyssey CLX), DC50 half-maximal degradation concentration. In short, it runs like this:
as §1

T1 sequence (P01116 1-188 isoform P01116-2 G12D): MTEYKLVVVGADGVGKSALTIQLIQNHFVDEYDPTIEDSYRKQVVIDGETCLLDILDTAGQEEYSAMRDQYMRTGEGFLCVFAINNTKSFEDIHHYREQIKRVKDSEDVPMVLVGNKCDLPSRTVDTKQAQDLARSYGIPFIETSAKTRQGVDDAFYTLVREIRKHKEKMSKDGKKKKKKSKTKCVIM

For the molecule `CCn1nccc1-c1ccc([C@H](CO)NC(=O)[C@@H]2C[C@@H](O)CN2C(=O)[C@H](C(C)C)n2cc(-c3ccc(COc4c(-c5c(C)c(F)cc6[nH]ncc56)c(C5CC5)cc5c(N6CCNCC[C@H]6C)nc(OC[C@H](C)OC)nc45)cc3)nn2)cc1` [Example 178, (2S,4R)-1-((2S)-2-(4-(4-(((6-cyclopropyl-7-(6-fluoro-5-methyl-1H-indazol-4-yl)-2-((S)-2-methoxypropoxy)-4-((R)-7-methyl-1,4-diazepan-1-yl)quinazolin-8-yl)oxy)methyl)phenyl)-1H-1,2,3-triazol-1-yl)-3-methylbutanoyl)-N—((R)-1-(4-(1-ethyl-1H-pyrazol-5-yl)phenyl)-2-hydroxyethyl)-4-hydroxypyrrolidine-2-carboxamide], in the assay on AsPC-1 cells, the IC50 was below 10 nM. This molecule also came in with a DC50 on KRAS (G12D) below 10 nM.
As to `CO[C@@H](C)COc1nc(N2CCCNCC2)c2cc(C3CC3)c(-c3c(C)c(F)cc4[nH]ncc34)c(OCc3ccc(-c4cn([C@H](C(=O)N5C[C@H](O)C[C@H]5C(=O)N[C@@H](CO)c5ccc(-c6scnc6C)cc5)C(C)C)nn4)cc3)c2n1` [Example 179, (2S,4R)-1-((2S)-2-(4-(4-(((6-cyclopropyl-4-(1,4-diazepan-1-yl)-7-(6-fluoro-5-methyl-1H-indazol-4-yl)-2-((S)-2-methoxypropoxy)quinazolin-8-yl)oxy)methyl)phenyl)-1H-1,2,3-triazol-1-yl)-3-methylbutanoyl)-4-hydroxy-N—((R)-2-hydroxy-1-(4-(4-methylthiazol-5-yl)phenyl)ethyl)pyrrolidine-2-carboxamide], in the assay on AsPC-1 cells (Homo sapiens, ASPC1, 144 h), the IC50 is below 10 nM. The same molecule had a DC50 on KRAS (G12D) below 10 nM.
Take `CCn1nccc1-c1ccc([C@H](CO)NC(=O)[C@@H]2C[C@@H](O)CN2C(=O)[C@H](C(C)C)n2cc(-c3ccc(COc4c(-c5c(C)c(F)cc6[nH]ncc56)c(C5CC5)cc5c(N6CCCOCC6)nc(OC[C@H](C)OC)nc45)cc3)nn2)cc1` [Example 180, (2S,4R)-1-((2S)-2-(4-(4-(((6-cyclopropyl-7-(6-fluoro-5-methyl-1H-indazol-4-yl)-2-((S)-2-methoxypropoxy)-4-(1,4-oxazepan-4-yl)quinazolin-8-yl)oxy)methyl)phenyl)-1H-1,2,3-triazol-1-yl)-3-methylbutanoyl)-N—((R)-1-(4-(1-ethyl-1H-pyrazol-5-yl)phenyl)-2-hydroxyethyl)-4-hydroxypyrrolidine-2-carboxamide]: the IC50 in the assay with AsPC-1 cells (Homo sapiens, ASPC1, 144 h) was below 10 nM. The DC50 on KRAS (G12D) is below 10 nM.
The molecule `CCn1nccc1-c1ccc([C@H](CO)NC(=O)[C@@H]2C[C@@H](O)CN2C(=O)[C@H](C(C)C)n2cc(-c3ccc(COc4c(-c5c(C)c(F)cc6[nH]ncc56)c(C5CC5)cc5c(N6CCC=CCC6)nc(OC[C@H](C)OC)nc45)cc3)nn2)cc1` [Example 181, (2S,4R)-1-((2S)-2-(4-(4-(((6-cyclopropyl-7-(6-fluoro-5-methyl-1H-indazol-4-yl)-2-((S)-2-methoxypropoxy)-4-(2,3,6,7-tetrahydro-1H-azepin-1-yl)quinazolin-8-yl)oxy)methyl)phenyl)-1H-1,2,3-triazol-1-yl)-3-methylbutanoyl)-N—((R)-1-(4-(1-ethyl-1H-pyrazol-5-yl)phenyl)-2-hydroxyethyl)-4-hydroxypyrrolidine-2-carboxamide] yielded an IC50 in the assay on AsPC-1 cells of 10 to 100 nM. Also, on KRAS (G12D), the DC50 fell in the range of 10 to 100 nM.
The molecule `CCn1nccc1-c1ccc([C@@H](NC(=O)[C@@H]2C[C@@H](O)CN2C(=O)[C@H](C(C)C)n2cc(-c3ccc(COc4c(-c5c(C)c(F)cc6[nH]ncc56)c(C5CC5)cc5c(N6CCCNCC6)nc(OC[C@H](C)OC)nc45)cc3)nn2)[C@H](C)O)cc1` [Example 184, (2S,4R)-1-((2S)-2-(4-(4-(((6-cyclopropyl-4-(1,4-diazepan-1-yl)-7-(6-fluoro-5-methyl-1H-indazol-4-yl)-2-((S)-2-methoxypropoxy)quinazolin-8-yl)oxy)methyl)phenyl)-1H-1,2,3-triazol-1-yl)-3-methylbutanoyl)-N-((1R,2S)-1-(4-(1-ethyl-1H-pyrazol-5-yl)phenyl)-2-hydroxypropyl)-4-hydroxypyrrolidine-2-carboxamide] came in with an IC50 in the assay on AsPC-1 cells (Homo sapiens, ASPC1, 144 h) below 10 nM. The same molecule showed a DC50 on KRAS (G12D) below 10 nM.
For the molecule `CCn1nccc1-c1ccc([C@@H](NC(=O)[C@@H]2C[C@@H](O)CN2C(=O)[C@H](C(C)C)n2cc(-c3ccc(COc4c(-c5c(C)c(F)cc6[nH]ncc56)c(C5CC5)cc5c(N(C)[C@@H]6CCNC6)nc(OC[C@H](C)OC)nc45)cc3)nn2)[C@H](C)O)c2c1CC2` [Example 186, (2S,4R)-1-((2S)-2-(4-(4-(((6-cyclopropyl-7-(6-fluoro-5-methyl-1H-indazol-4-yl)-2-((S)-2-methoxypropoxy)-4-(methyl((R)-pyrrolidin-3-yl)amino)quinazolin-8-yl)oxy)methyl)phenyl)-1H-1,2,3-triazol-1-yl)-3-methylbutanoyl)-N-((1R,2S)-1-(5-(1-ethyl-1H-pyrazol-5-yl)bicyclo[4.2.0]octa-1(6),2,4-trien-2-yl)-2-hydroxypropyl)-4-hydroxypyrrolidine-2-carboxamide], in the assay on AsPC-1 cells (Homo sapiens, ASPC1, 144 h), the IC50 is below 10 nM. Also, the 50% degradation concentration (DC50) on KRAS (G12D) was below 10 nM.
In the assay with AsPC-1 cells (Homo sapiens, ASPC1, 144 h), `CO[C@@H](C)COc1nc(N(C)[C@@H]2CCNC2)c2cc(C3CC3)c(-c3c(C)c(F)cc4[nH]ncc34)c(OCc3ccc(-c4cn([C@H](C(=O)N5C[C@H](O)C[C@H]5C(=O)N[C@H](c5ccc(-c6scnc6C)cc5)[C@H](C)O)C(C)C)nn4)cc3)c2n1` [Example 187, (2S,4R)-1-((2S)-2-(4-(4-(((6-cyclopropyl-7-(6-fluoro-5-methyl-1H-indazol-4-yl)-2-((S)-2-methoxypropoxy)-4-(methyl((R)-pyrrolidin-3-yl)amino)quinazolin-8-yl)oxy)methyl)phenyl)-1H-1,2,3-triazol-1-yl)-3-methylbutanoyl)-4-hydroxy-N-((1R,2S)-2-hydroxy-1-(4-(4-methylthiazol-5-yl)phenyl)propyl)pyrrolidine-2-carboxamide] returned an IC50 below 10 nM. On KRAS (G12D), the DC50 was below 10 nM.
In turn, `CO[C@@H](C)COc1nc(N2C[C@@H]3C[C@H]2CN3)c2cc(C3CC3)c(-c3c(C)c(F)cc4[nH]ncc34)c(OCc3ccc(-c4cn([C@H](C(=O)N5C[C@H](O)C[C@H]5C(=O)N[C@H](C#Cc5cc(C)cc6[nH]ncc56)CO)C(C)C)nn4)cc3)c2n1` [Example 188, (2S,4R)-1-((2S)-2-(4-(4-(((4-((1S,4S)-2,5-diazabicyclo[2.2.1]heptan-2-yl)-6-cyclopropyl-7-(6-fluoro-5-methyl-1H-indazol-4-yl)-2-((S)-2-methoxypropoxy)quinazolin-8-yl)oxy)methyl)phenyl)-1H-1,2,3-triazol-1-yl)-3-methylbutanoyl)-4-hydroxy-N—((R)-1-hydroxy-4-(6-methyl-1H-indazol-4-yl)but-3-yn-2-yl)pyrrolidine-2-carboxamide] gave an IC50 with AsPC-1 cells (Homo sapiens, ASPC1, 144 h) of 10 to 100 nM. The same molecule registered a 50% degradation concentration (DC50) on KRAS (G12D) of 10 to 100 nM.
For the molecule `CO[C@@H](C)COc1nc(N2CCNCC[C@H]2C)c2cc(C3CC3)c(-c3c(C)c(F)cc4[nH]ncc34)c(OCc3ccc(-c4cn([C@H](C(=O)N5C[C@H](O)C[C@H]5C(=O)N[C@@H](CO)c5ccc(-c6scnc6C)cc5)C(C)C)nn4)cc3)c2n1` [Example 189, (2S,4R)-1-((2S)-2-(4-(4-(((6-cyclopropyl-7-(6-fluoro-5-methyl-1H-indazol-4-yl)-2-((S)-2-methoxypropoxy)-4-((R)-7-methyl-1,4-diazepan-1-yl)quinazolin-8-yl)oxy)methyl)phenyl)-1H-1,2,3-triazol-1-yl)-3-methylbutanoyl)-4-hydroxy-N—((R)-2-hydroxy-1-(4-(4-methylthiazol-5-yl)phenyl)ethyl)pyrrolidine-2-carboxamide], the IC50 in the assay with AsPC-1 cells (Homo sapiens, ASPC1, 144 h) was below 10 nM. For the same molecule, the 50% degradation concentration (DC50) at KRAS (G12D) is below 10 nM.
In the case of `CO[C@@H](C)COc1nc(N2CCNCC[C@H]2C)c2cc(C3CC3)c(-c3c(C)c(F)cc4[nH]ncc34)c(OCc3ccc(-c4cn([C@H](C(=O)N5C[C@H](O)C[C@H]5C(=O)N[C@H](c5ccc(-c6scnc6C)cc5)[C@H](C)O)C(C)C)nn4)cc3)c2n1` [Example 190, (2S,4R)-1-((2S)-2-(4-(4-(((6-cyclopropyl-7-(6-fluoro-5-methyl-1H-indazol-4-yl)-2-((S)-2-methoxypropoxy)-4-((R)-7-methyl-1,4-diazepan-1-yl)quinazolin-8-yl)oxy)methyl)phenyl)-1H-1,2,3-triazol-1-yl)-3-methylbutanoyl)-4-hydroxy-N-((1R,2S)-2-hydroxy-1-(4-(4-methylthiazol-5-yl)phenyl)propyl)pyrrolidine-2-carboxamide], in the assay on AsPC-1 cells (Homo sapiens, ASPC1, 144 h), the IC50 was below 10 nM. Besides, the DC50 at KRAS (G12D) is below 10 nM.
In the assay on AsPC-1 cells (Homo sapiens, ASPC1, 144 h), `CCn1nccc1-c1ccc([C@H](CO)NC(=O)[C@@H]2C[C@@H](O)CN2C(=O)[C@H](C(C)C)n2cc(-c3ccc(COc4c(-c5c(C)c(F)cc6[nH]ncc56)c(C5CC5)cc5c(N(C)[C@@H]6CCNC6)nc(OC[C@H](C)OC)nc45)cc3)nn2)c2c1CC2` [Example 192, (2S,4R)-1-((2S)-2-(4-(4-(((6-cyclopropyl-7-(6-fluoro-5-methyl-1H-indazol-4-yl)-2-((S)-2-methoxypropoxy)-4-(methyl((R)-pyrrolidin-3-yl)amino)quinazolin-8-yl)oxy)methyl)phenyl)-1H-1,2,3-triazol-1-yl)-3-methylbutanoyl)-N—((R)-1-(5-(1-ethyl-1H-pyrazol-5-yl)bicyclo[4.2.0]octa-1(6),2,4-trien-2-yl)-2-hydroxyethyl)-4-hydroxypyrrolidine-2-carboxamide] showed an IC50 below 10 nM. On KRAS (G12D), this molecule came in with a DC50 below 10 nM.

The record behind these values is patent US20260295053A1, “COMPOUNDS FOR DEGRADATION AND INHIBITION OF KRAS (G12D) PROTEIN” (Shenzhen Ionova Life Science Co., Ltd., priority 2023, published 2026).
